{"source": "patent US8329688B2", "about": "“Trans-4-[[(5S)-5-[[[3,5-bis(trifluoromethyl)phenyl]methyl](2-methyl-2H-tetrazol-5-yl)amino]-2,3,4,5-tetrahydro-7,9-dimethyl-1H-1-benzazepin-1-yl]methyl]-cyclohexanecarboxylic acid” (Eli Lilly and Company, priority 2009, dated 2012)", "experiment": "IV and PO pharmacokinetics of CETP inhibitor compounds in male Sprague Dawley rats", "assay_type": "in vivo", "conditions": "rat, 3 mg/kg PO, 1 mg/kg IV", "description": "This following is to determine the pharmacokinetic parameters, including oral bioavailability, following a single 1 mg/kg intravenous bolus or a 3 mg/kg oral dose administration of the compound to male Sprague Dawley rats (n=4) in a crossover study design. The intravenous vehicle is 20% solutol microemulsion/80% deionized water. The oral vehicle is povidone USP 10%/SLS 0.5%/QS deionized water. In the intravenous arm, blood samples are collected at 0.08, 0.25, 0.5, 1, 2, 5, 8, 12, and 24 hours post-dose. In the oral arm, blood samples are collected at 0, 0.25, 0.5, 1, 2, 5, 8, 12, and 24 hours post-dose. Plasma is obtained by centrifugation, placed on ice, and frozen until samples are shipped on dry ice to Bioanalytical Systems, Inc. (BASi; West Lafayette, Ind.) for bioanalytical analysis. Concentrations of BCCA are determined by LC/MS/MS and pharmacokinetic parameters are calculated using a validated software program (Watson, Version 7.1). […]", "data": [{"compound": "Cc1cc2c(c(C)c1C(F)(F)F)N(CC1CCC(CC(=O)O)CC1)CCC[C@@H]2N(Cc1cc(C(F)(F)F)cc(C(F)(F)F)c1)c1nnn(C)n1", "note": "(stereo partly drawn) [compound 15, (S)-(4-{5-[(3,5-Bis-trifluoromethyl-benzyl)-(2-methyl-2H-tetrazol-5-yl)-amino]-7,9-dimethyl-8-trifluoromethyl-2,3,4,5-tetrahydro-benzo[b]azepin-1-ylmethyl}-cyclohexyl)-acetic acid]", "values": [{"measurement": "F % (AUC Extrap.) ± sd", "result": "8 ± 3", "unit": "%"}]}]}
